In US20250281424A1 (New York Blood Center, Inc, priority 2020, published 2025) one finds inhibition data, which are given here for 23 compounds.

The target in the assay is T1, human PF4 (Homo sapiens, UniProt P02776).
T1 construct: PF4 is a 70 amino acid, lysine-rich 7.8 kDa platelet-specific protein; made in house; host or cells: Escherichia coli BL21DE3 pLysS (pT7-7) and/or Drosophila S2 cells
T1 sequence (P02776 32-101): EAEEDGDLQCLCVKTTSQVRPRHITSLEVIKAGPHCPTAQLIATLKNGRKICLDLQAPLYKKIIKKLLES
The assay can be described thus: Inhibition of PF4 tetramer formation (BS3 cross-linking, SDS-PAGE). It is filed as biochemical. The settings on record: read-out: % inhibition of PF4 tetramer formation at single concentration of inhibitor; for inhibition at 1 µM: 1 μM inhibitor; for inhibition at 3 µM: 3 μM inhibitor (column A); for inhibition at 10 µM: 10 μM inhibitor (column A). A digest of the protocol:
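Recombinant human wild-type PF4 (E. coli-expressed, heparin-purified), 10 μg/ml in PBS, incubated with compound 15 min at 37° C or 60 min at room temperature, then cross-linked with 0.2 mM BS3 for 30 min at room temperature. Reducing 12% SDS-PAGE; bands quantified as % tetramer, trimer, dimer, monomer versus compound-free control.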

As for `O=C(c1ccc2c(c1)C(=O)C(C(=O)C1CCC1)C2=O)c1ccc2c(c1)C(=O)C(C(=O)C1CCC1)C2=O` (centres unmarked) [Example 299, 2-cyclobutanecarbonyl-5-(2-cyclobutanecarbonyl-1,3-dioxo-2,3-dihydro-1H-indene-5-carbonyl)-2,3-dihydro-1H-indene-1,3-dione], the inhibition at 1 µM was 32% and the inhibition at 3 µM is 56%.

For the compound `O=C(NC1CC1)C1C(=O)c2ccc(C#Cc3ccc4c(c3)C(=O)C(C(=O)NC3CC3)C4=O)cc2C1=O` (centres unmarked) [Example 300, N-cyclopropyl-5-{2-[2-(cyclopropylcarbamoyl)-1,3-dioxo-2,3-dihydro-1H-inden-5-yl]ethynyl}-1,3-dioxo-2,3-dihydro-1H-indene-2-carboxamide], the inhibition at 1 µM is 22% and the inhibition at 3 µM turned out to be 32%.

For the compound `CC(=O)C1C(=O)c2cc(S(=O)(=O)c3cnc4c(c3)C(=O)C(C(C)=O)C4=O)cnc2C1=O` (centres unmarked) [Example 301, 6-acetyl-3-({6-acetyl-5,7-dioxo-5H,6H,7H-cyclopenta[b]pyridin-3-yl}sulfonyl)-5H,6H,7H-cyclopenta[b]pyridine-5,7-dione], the inhibition at 1 µM worked out at 23% and the inhibition at 3 µM stood at 30%.

Consider `O=C(O)CCNC(=O)C1C(=O)c2ccc(S(=O)(=O)c3ccc4c(c3)C(=O)C(C(=O)NCCC(=O)O)C4=O)cc2C1=O` (centres unmarked) [Example 303, 3-{[5-({2-[(2-carboxyethyl)carbamoyl]-1,3-dioxo-2,3-dihydro-1H-inden-5-yl}sulfonyl)-1,3-dioxo-2,3-dihydro-1H-inden-2-yl]formamido}propanoic acid], for which the inhibition at 10 µM amounted to 60%.

Consider `O=C(O)CCNC(=O)C1C(=O)c2ccc(Oc3ccc4c(c3)C(=O)C(C(=O)NCCC(=O)O)C4=O)cc2C1=O` (centres unmarked) [Example 305, 3-{[5-({2-[(2-carboxyethyl)carbamoyl]-1,3-dioxo-2,3-dihydro-1H-inden-5-yl}oxy)-1,3-dioxo-2,3-dihydro-1H-inden-2-yl]formamido}propanoic acid], for which the inhibition at 1 µM stood at 13% and the inhibition at 3 µM turned out to be 50%.

For `O=C(O)CNC(=O)C1C(=O)c2ccc(Oc3ccc4c(c3)C(=O)C(C(=O)NCC(=O)O)C4=O)cc2C1=O` (centres unmarked) [Example 307, 2-{[5-({2-[(carboxymethyl)carbamoyl]-1,3-dioxo-2,3-dihydro-1H-inden-5-yl}oxy)-1,3-dioxo-2,3-dihydro-1H-inden-2-yl]formamido}acetic acid], the inhibition at 1 µM amounted to 15% and the inhibition at 3 µM stood at 47%.

`O=C(O)CNC(=O)C1C(=O)c2ccc(C(=O)c3ccc4c(c3)C(=O)C(C(=O)NCC(=O)O)C4=O)cc2C1=O` (centres unmarked) [Example 309, 2-[(5-{2-[(carboxymethyl)carbamoyl]-1,3-dioxo-2,3-dihydro-1H-indene-5-carbonyl}-1,3-dioxo-2,3-dihydro-1H-inden-2-yl)formamido]acetic acid]: the inhibition at 1 µM was 20% and the inhibition at 3 µM worked out at 32%.

Take `O=C(O)CNC(=O)C1C(=O)c2ccc(S(=O)(=O)c3ccc4c(c3)C(=O)C(C(=O)NCC(=O)O)C4=O)cc2C1=O` (centres unmarked) [Example 311, 2-{[5-({2-[(carboxymethyl)carbamoyl]-1,3-dioxo-2,3-dihydro-1H-inden-5-yl}sulfonyl)-1,3-dioxo-2,3-dihydro-1H-inden-2-yl]formamido}acetic acid]: the inhibition at 10 µM was 73%.

Consider `C[C@H](NC(=O)C1C(=O)c2ccc(Oc3ccc4c(c3)C(=O)C(C(=O)N[C@@H](C)C(=O)O)C4=O)cc2C1=O)C(=O)O` (stereo partly drawn) [Example 313, (2S)-2-({5-[(2-{[(1S)-1-carboxyethyl]carbamoyl}-1,3-dioxo-2,3-dihydro-1H-inden-5-yl)oxy]-1,3-dioxo-2,3-dihydro-1H-inden-2-yl}formamido) propanoic acid], for which the inhibition at 1 µM came to 31% and the inhibition at 3 µM is 67%.

On to `CC(=O)C1C(=O)c2ccc(N(C)S(=O)(=O)c3ccc4c(c3)C(=O)C(C(C)=O)C4=O)cc2C1=O` (centres unmarked) [Example 314, -acetyl-N-(2-acetyl-1,3-dioxo-2,3-dihydro-1H-inden-5-yl)-N-methyl-1,3-dioxo-2,3-dihydro-1H-indene-5-sulfonamide], for which the inhibition at 1 µM is 9% and the inhibition at 3 µM was found to be 28%.

As for `C[C@H](NC(=O)C1C(=O)c2ccc(C(=O)c3ccc4c(c3)C(=O)C(C(=O)N[C@@H](C)C(=O)O)C4=O)cc2C1=O)C(=O)O` (stereo partly drawn) [Example 316, (2S)-2-{[5-(2-{[(1S)-1-carboxyethyl]carbamoyl}-1,3-dioxo-2,3-dihydro-1H-indene-5-carbonyl)-1,3-dioxo-2,3-dihydro-1H-inden-2-yl]formamido}propanoic acid], the inhibition at 1 µM is 25% and the inhibition at 3 µM was determined as 50%.

As to `C[C@H](NC(=O)C1C(=O)c2ccc(S(=O)(=O)c3ccc4c(c3)C(=O)C(C(=O)N[C@@H](C)C(=O)O)C4=O)cc2C1=O)C(=O)O` (stereo partly drawn) [Example 318, (2S)-2-({5-[(2-{[(1S)-1-carboxyethyl]carbamoyl}-1,3-dioxo-2,3-dihydro-1H-inden-5-yl)sulfonyl]-1,3-dioxo-2,3-dihydro-1H-inden-2-yl}formamido) propanoic acid], the inhibition at 1 µM was 15% and the inhibition at 3 µM is 36%.

`CC(C)(C)OC(=O)NCC(=O)C1C(=O)c2ccc(C#Cc3ccc4c(c3)C(=O)C(C(=O)CNC(=O)OC(C)(C)C)C4=O)cc2C1=O` (centres unmarked) [Example 319, tert-butyl N-[2-(5-{2-[2-(2-{[(tert-butoxy)carbonyl]amino}acetyl)-1,3-dioxo-2,3-dihydro-1H-inden-5-yl]ethynyl}-1,3-dioxo-2,3-dihydro-1H-inden-2-yl)-2-oxoethyl]carbamate]: the inhibition at 1 µM is 13% and the inhibition at 3 µM is 22%.

Take `CN(CC(=O)C1C(=O)c2ccc(C#Cc3ccc4c(c3)C(=O)C(C(=O)CN(C)C(=O)OC(C)(C)C)C4=O)cc2C1=O)C(=O)OC(C)(C)C` (centres unmarked) [Example 320, tert-butyl N-[2-(5-{2-[2-(2-{[(tert-butoxy)carbonyl](methyl)amino}acetyl)-1,3-dioxo-2,3-dihydro-1H-inden-5-yl]ethynyl}-1,3-dioxo-2,3-dihydro-1H-inden-2-yl)-2-oxoethyl]-N-methylcarbamate]: the inhibition at 1 µM is 12% and the inhibition at 3 µM was 26%.

Regarding `CCCC(=O)C1C(=O)c2ccc(Oc3ccc4c(c3)C(=O)C(C(=O)CCC)C4=O)cc2C1=O` (centres unmarked) [Example 321, 2-butanoyl-5-[(2-butanoyl-1,3-dioxo-2,3-dihydro-1H-inden-5-yl)oxy]-2,3-dihydro-1H-indene-1,3-dione], the inhibition at 1 µM came out at 17% and the inhibition at 3 µM was found to be 23%.

Consider `CCCC(=O)C1C(=O)c2ccc(S(=O)(=O)c3ccc4c(c3)C(=O)C(C(=O)CCC)C4=O)cc2C1=O` (centres unmarked) [Example 322, 2-butanoyl-5-[(2-butanoyl-1,3-dioxo-2,3-dihydro-1H-inden-5-yl)sulfonyl]-2,3-dihydro-1H-indene-1,3-dione], for which the inhibition at 10 µM stood at 40%.

As to `CCC(=O)C1C(=O)c2ccc(Oc3ccc4c(c3)C(=O)C(C(=O)CC)C4=O)cc2C1=O` (centres unmarked) [Example 323, 5-[(1,3-dioxo-2-propanoyl-2,3-dihydro-1H-inden-5-yl)oxy]-2-propanoyl-2,3-dihydro-1H-indene-1,3-dione], the inhibition at 1 µM amounted to 7% and the inhibition at 3 µM worked out at 18%.

Take `CCC(=O)C1C(=O)c2ccc(C(=O)c3ccc4c(c3)C(=O)C(C(=O)CC)C4=O)cc2C1=O` (centres unmarked) [Example 324, 5-(1,3-dioxo-2-propanoyl-2,3-dihydro-1H-indene-5-carbonyl)-2-propanoyl-2,3-dihydro-1H-indene-1,3-dione]: the inhibition at 10 µM was 35%.

Take `CCC(=O)C1C(=O)c2ccc(S(=O)(=O)c3ccc4c(c3)C(=O)C(C(=O)CC)C4=O)cc2C1=O` (centres unmarked) [Example 325, 5-[(1,3-dioxo-2-propanoyl-2,3-dihydro-1H-inden-5-yl)sulfonyl]-2-propanoyl-2,3-dihydro-1H-indene-1,3-dione]: the inhibition at 10 µM is 34%.

`NCC(=O)C1C(=O)c2ccc(Oc3ccc4c(c3)C(=O)C(C(=O)CN)C4=O)cc2C1=O` (centres unmarked) [Example 326, 2-(2-aminoacetyl)-5-{[2-(2-aminoacetyl)-1,3-dioxo-2,3-dihydro-1H-inden-5-yl]oxy}-2,3-dihydro-1H-indene-1,3-dione]: the inhibition at 1 µM was found to be 13% and the inhibition at 3 µM stood at 26%.

On to `NCC(=O)C1C(=O)c2ccc(C(=O)c3ccc4c(c3)C(=O)C(C(=O)CN)C4=O)cc2C1=O` (centres unmarked) [Example 327, 2-(2-aminoacetyl)-5-[2-(2-aminoacetyl)-1,3-dioxo-2,3-dihydro-1H-indene-5-carbonyl]-2,3-dihydro-1H-indene-1,3-dione], for which the inhibition at 1 µM stood at 13% and the inhibition at 3 µM was found to be 24%.

Consider `O=C(c1ccc2c(c1)C(=O)C(C(=S)NC1CC1)C2=O)c1ccc2c(c1)C(=O)C(C(=S)NC1CC1)C2=O` (centres unmarked) [Example 328, N-cyclopropyl-5-[2-(cyclopropylcarbamothioyl)-1,3-dioxo-2,3-dihydro-1H-indene-5-carbonyl]-1,3-dioxo-2,3-dihydro-1H-indene-2-carbothioamide], for which the inhibition at 1 µM came to 16% and the inhibition at 3 µM was determined as 26%.

For `O=C1c2ccc(S(=O)(=O)c3ccc4c(c3)C(=O)C(C(=S)NC3CC3)C4=O)cc2C(=O)C1C(=S)NC1CC1` (centres unmarked) [Example 329, N-cyclopropyl-5-{[2-(cyclopropylcarbamothioyl)-1,3-dioxo-2,3-dihydro-1H-inden-5-yl]sulfonyl}-1,3-dioxo-2,3-dihydro-1H-indene-2-carbothioamide], the inhibition at 1 µM is 22% and the inhibition at 3 µM was found to be 50%.
